Consider seven compounds from ChEMBL document CHEMBL1770102, “Identification of novel potential antibiotics for tuberculosis by in silico structure-based drug screening” (Eur J Med Chem, 2011).

SMILES strings stand for the structures. Active and inactive are the calls of the source. No cut-off for these calls is given here.

For data set [1], the system named is Mycobacterium vanbaalenii. Kind of data set: Antibacterial activity against Mycobacterium vanbaalenii assessed as growth inhibition at 30 uM after 6 hrs by microplate reader. The format is functional. To be noted: Mycolicibacterium vanbaalenii.
The test system of data set [2] is Mycobacterium vanbaalenii. The data set can be described thus: Antibacterial activity against Mycobacterium vanbaalenii assessed as growth inhibition at 30 uM after 72 hrs by microplate reader. The format is functional. To be noted: Mycolicibacterium vanbaalenii.
For the next data set, the system named is SH-SY5Y. Kind of data set: Cytotoxicity against human SH-SY5Y cells at 30 uM after 2 days by measuring absorbance at 460 nm. The format is functional, cell-based.
The subject of another data set is MDCK. Kind of data set: Cytotoxicity against dog MDCK cells at 30 uM after 2 days by measuring absorbance at 460 nm. The format is cell-based, Canis lupus familiaris. To be noted: 48 h.
Data set [3] has as its system Mycobacterium tuberculosis. Kind of data set: Antibacterial activity against Mycobacterium tuberculosis assessed as inhibition of cell growth after 24 hrs. The format is functional, organism-based.
The test system of data set [4] is Rhodococcus opacus. The data set can be described thus: Antibacterial activity against Rhodococcus opacus assessed as growth inhibition at 50 uM after 72 hrs by microplate reader. The format is functional.
In data set [5] the test system is Escherichia coli. Kind of data set: Toxicity against Escherichia coli BL21.
Data set [6] relates to Rhodococcus opacus. The data set can be described thus: Antibacterial activity against Rhodococcus opacus assessed as growth inhibition at 30 uM after 72 hrs by microplate reader. The format is functional.
In data set [7] the test system is Mycobacterium vanbaalenii. The data set can be described thus: Antibacterial activity against Mycobacterium vanbaalenii assessed as inhibition of cell growth after 24 hrs. The format is functional, Mycolicibacterium vanbaalenii.
The test system of data set [8] is Escherichia coli. Kind of data set: Toxicity against Escherichia coli JM109. The format is organism-based. The note with it: in vivo.
The subject of data set [9] is Rhodococcus opacus. Kind of data set: Antibacterial activity against Rhodococcus opacus assessed as growth inhibition at 100 ug/ml after 72 hrs by microplate reader. The format is functional.

With `COC(=O)c1ccc(Cl)c(NC(=O)CN(c2ccc(OCc3ccccc3)cc2)S(C)(=O)=O)c1`, the “growth inhibition (GI)” value in data set [1] and in [2] was “Active” in each case.

Regarding `COc1ccc(OC)c(NS(=O)(=O)c2ccc(NC(=O)CN3C(=O)c4cccc5cccc3c45)cc2)c1`, the “growth inhibition (GI)” value in data set [1] and in data set [2] was “Active” throughout. In addition, the Activity result with SH-SY5Y and with MDCK was “Toxic” throughout.

With `NNC(=O)c1ccncc1` [ISONIAZID], the IC50 (as a rule, the concentration needed to halve the response being measured) in [3] amounted to 15 µM. Also, the “growth inhibition (GI)” value (in [2]; in the data set on Rhodococcus opacus [4]) was “Active” in each case.

Turning to `CN(C(=O)CSc1nc(Nc2ccccc2)nc(N2CCOCC2)n1)C12CC3CC(CC(C3)C1)C2`, the “growth inhibition (GI)” value in [1] was “Active”. Also, the “growth inhibition (GI)” value in data set [2] is “inactive”.

Turning to `O=S(=O)(NCCc1ccccc1)c1cccc2c(S(=O)(=O)NCCc3ccccc3)cccc12`, in data set [1], the “growth inhibition (GI)” value was “inactive”.

With `COc1cc2c(cc1NC(=O)CSc1nnc(-c3ccccc3C)n1Cc1ccoc1)oc1ccccc12`, the “growth inhibition (GI)” value (in [1]; in the data set on Rhodococcus opacus [6]; in data set [2]) was “Active” throughout. The Activity result was “Non-toxic” in the data set on Escherichia coli [5], “Not toxic” in the data set on SH-SY5Y, “Non-toxic” with Escherichia coli [8] and “Non-toxic” with MDCK. Further, the IC50 in data set [7] turned out to be 5.3 µM.

In the case of `CC1(C)S[C@@H]2[C@H](NC(=O)[C@H](N)c3ccccc3)C(=O)N2[C@H]1C(=O)O`, the “growth inhibition (GI)” value in the data set on Rhodococcus opacus [9] was “Active”.
